A short description of data set [1]: Nude mouse PK study with adagrasib and DCC-3116 treatment. In kind it is in vivo. The settings on record: for AUC(0-t) / Cmax: female, athymic nude, mouse, plasma, po; for AUC(0-t): read-out: adagrasib AUC0-2 h (average); for Cmax: read-out: adagrasib Cmax in plasma (average). The protocol: The nude mouse PK study was performed at Attentive Science (Stilwell, KS), an AAALAC accredited facility. Food and water were provided ad libitum. […] Female athymic nude mice (n=3 per group) were dosed for 5 consecutive days. […] At 0, 0.5, and 2 h post final dose blood samples were collected from mice from each group. Blood samples were collected in K2EDTA tubes and processed into plasma, then stored at −20° C. Plasma samples were subjected to pharmacokinetic analysis using liquid chromatography coupled with tandem mass spectrometry analysis.

Data set [2] has as its system ULK. The data set is described as follows: pATG13 ELISA in GIST-T1 cells, DCC-3116 with binimetinib and/or ripretinib. To be noted: GIST-T1 cell line, FIG. 10. In kind it is cell-based.
Description: A substrate solution for HRP was added and the absorbance was measured using a plate reader. Data was plotted in GraphPad Prism and fit to a sigmoidal dose response curve to generate IC50 values.
The nature of data set [3]: MiaPaca-2 xenograft PK/PD model: sotorasib plasma PK with DCC-3116. In kind it is in vivo, mouse. The settings on record: for AUC(0-t) / Cmax: female, Envigo Nude, mouse, plasma, po, 10 mg/kg. The protocol: The MiaPaca-2 xenograft model was performed in compliance with all the laws, regulations and guidelines of the National Institutes of Health (NIH) and with the approval of the Animal Care and Use Committee of Labcorp (Ann Arbor, MI), an AAALAC accredited facility. Food and water were provided ad libitum. […] Female Envigo Nude mice (6-7 weeks old) were inoculated subcutaneously just below the right high axilla with ten million cells in Dulbecco's Phosphate Buffered Saline with 50% Matrigel, using a 27-gauge needle and syringe. When tumor burdens reached 182 mm^3 on average on day 6, mice were randomly assigned into groups such that the mean tumor burden for all groups was within 10% of the overall mean tumor burden for the study population. […] At 2 h post final dose in the vehicle group, and 2, 6, and 10 h post final dose in the treatment groups, 3 mice from each group were sacrificed for tumor and plasma sampling. Blood samples were collected in K2EDTA tubes and processed into plasma, snap frozen in liquid nitrogen then stored at −80° C. Plasma samples were subjected to pharmacokinetic analysis using liquid chromatography coupled with tandem mass spectrometry analysis (Cayman Chemical, Ann Arbor, MI). Tumors were harvested and powdered over liquid nitrogen in covaris bags and stored at −80° C.

Where [4] appears, read: 25 mg/kg, adagrasib in combination with 25 mg/kg DCC-3116 (first statement).
The mark [5] stands for this setting: 25 mg/kg, adagrasib in combination with 25 mg/kg DCC-3116 (second statement).
Where [6] appears, read: 100 mg/kg, adagrasib 100 mg/kg PO QD single agent, 5 days.
Where [7] appears, read: 10 mg/kg sotorasib + 10 mg/kg DCC-3116.
Where [8] appears, read: 10 mg/kg sotorasib + 25 mg/kg DCC-3116.
The mark [9] stands for this setting: 10 mg/kg sotorasib + 100 mg/kg DCC-3116.
Where [10] appears, read: 10 mg/kg sotorasib as a single agent.

As for `C=C(F)C(=O)N1CCN(c2nc(OC[C@@H]3CCCN3C)nc3c2CCN(c2cccc4cccc(Cl)c24)C3)C[C@@H]1CC#N` [adagrasib, reference compound], the “differences in adagrasib Cmax and AUC0-2 h amongst groups” value in data set [1] (adagrasib alone versus with DCC-3116) was “not statistically significant”. Moreover, the AUC(0-t) came out at 2970 ng·h/mL in data set [1] (setting [4]), 3560 ng·h/mL in data set [1] (setting [5]) and 4230 ng·h/mL in data set [1] (setting [6]). Further, the figures for the Cmax in data set [1] (setting [4]), in data set [1] (setting [5]) and in data set [1] (setting [6]) were 1880 ng/mL, 2060 ng/mL and 2530 ng/mL, respectively.
Take `Cn1cnc2c(F)c(Nc3ccc(Br)cc3F)c(C(=O)NOCCO)cc21` [binimetinib]: the “effect on ULK activity” value in data set [2] was “induces ULK Activity”.
Regarding `C=CC(=O)N1CCN(c2nc(=O)n(-c3c(C)ccnc3C(C)C)c3nc(-c4c(O)cccc4F)c(F)cc23)[C@@H](C)C1` [sotorasib], the AUC(0-t) in data set [3] (setting [7]) amounted to 344 ng·h/mL; in data set [3] (setting [8]), 727 ng·h/mL; in data set [3] (setting [9]) it was 385 ng·h/mL; in data set [3] (setting [10]), 963 ng·h/mL. Besides, the maximum concentration (Cmax) is 76 ng/mL in data set [3] (setting [7]), 170 ng/mL in data set [3] (setting [8]), 74 ng/mL in data set [3] (setting [9]) and 296 ng/mL in data set [3] (setting [10]). Also, in data set [3] (sotorasib alone versus with DCC-3116), the “differences in sotorasib Cmax and AUC0-10 h amongst groups” value is listed as “not statistically significant”.
